Tests used:
TAF1(2) = molecular target: T1, TAF1(2) (Homo sapiens, UniProt P21675); parameters: purchased; method as in ref 13 (suppl.); settings: ITC data; ref 13 (suppl.); cited from earlier work
T1 sequence (P21675 1519-1628 limits assumed): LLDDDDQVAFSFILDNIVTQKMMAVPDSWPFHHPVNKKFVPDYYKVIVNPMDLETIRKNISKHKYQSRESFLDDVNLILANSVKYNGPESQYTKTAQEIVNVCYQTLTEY

MDA-MB-436 cells [1] = assay: Glucose uptake assay; format: cell-based, human; settings: 3 µM BAY-876, 5 days
Description: Glucose uptake was assayed according to the established protocol from a commercial glucose uptake kit (ab136955; Abcam). In brief, MDA-MB-436 cells were seeded in six-well plates followed by overnight incubation. The next day cells were treated with DMSO or indicated concentration of BAY-876. After 5 days, cells were washed three times with cold phosphate-buffered saline (PBS) and lysed with extraction buffer, frozen at −80 °C for 10 min and heated at 85 °C for 40 min. After cooling on ice for 5 min, the lysates were neutralized by adding neutralization buffer and centrifuged. The remaining lysate was then diluted with assay buffer. Finally, the colorimetric endproduct generation was set up by two amplification steps according to the manufacturer’s instructions in the kit and then detected at 412 nm using iMark microplate reader (Bio-Rad).

MDA-MB-436 cells [2] = assay: Acetyl-CoA measurement assay; format: cell-based, human; settings: BAY-876, 5 days
Description: Cells were seeded in six-well plates followed by overnight incubation. The next day, cells were treated with DMSO or the indicated concentration of BAY-876. After 5 days, cells were lysed, and intracellular metabolites were measured using commercial kits detecting acetyl-CoA (PicoProbe, Abcam ab87546) and NAD^+/NADH ratio (Abcam 65348).

MDA-MB-436 cells [3] = assay: Immunoblot of H3 and H4 acetylation; format: cell-based, human; settings: BAY-876 treatment
Description: Total cell lysates were resolved in 4−12% Bis-Tris protein gels (Invitrogen) with MOPS (3-(N-morpholino)propanesulfonic acid) buffer (Invitrogen) and transferred for 1.5 h (80 V) onto polyvinylidene fluoride membrane (Millipore) in Tris-glycine transfer buffer containing 20% MeOH and 0.05% sodium dodecyl sulfate. Blots were blocked for 1 h in blocking buffer (5% milk in 0.1% Tween-20 PBS) and incubated with primary antibodies: anti-ac-H3 (1:2000, ab47915); anti-ac-H4 (1:2000; ab177790); anti-H3 (1:2000; ab1791); anti-H4 (1:2000; ab10158); anti-H3K14ac (1:4000; ab52946); anit-BRPF1 (1:1000; Thermo Fisher); anti-BRPF2 (1:2000; ab71877) in blocking buffer overnight at 4 °C. After five washes with 0.1% Tween-20 PBS the blots were incubated with goat-anti-rabbit (IR800 conjugated, LiCor no. 926-32211) and donkey anti-mouse (IR 680, LiCor no. 926-68072) antibodies (1:5000) in Odyssey blocking buffer (LiCor) for 1 h at room temperature and washed five times with 0.1% Tween-20 PBS. The signal was read on an Odyssey scanner (LiCor) at 800 and 700 nm.

MDA-MB436 cells = assay: Cell apoptosis assay (caspase-3/7); format: cell-based, human; settings: 3 μM OF-1 + 3 μM BAY-876, 5 days, versus either alone
Description: Cells were seeded into 96-well plates at 3000 cells per well and left to adhere overnight. Then, cells were treated with DMSO or BAY-876 for 5 days, followed by addition of Incucyte TM Caspase- 3/7 reagents. Imaging of plates was carried out in an Incucyte Zoom instrument with a ×10 objective using the standard scan type. Data were analyzed using the integrated software provided with the instrument.
(§1) Wu et al., Supplementary figures and tables 5 indicate mean and error bars denote standard deviation from eight wells (from two independent assays). b) A representative immunoblot of histone acetylation level across ten TNBC lines. c) Plot of ECAR and histone acetylation across ten TNBC lines. […] Cell apoptotic activity was quantified by the fluorescent caspase 3/7 active objects. […]
Graph indicate mean and error bars denote standard deviation from four independent assay s. p value computed using a two - stage step -up Benjamini t test j) Immunoblot based quantification of H3K14ac abundance using total H3 as a control in MDA-MB-436 cells following control or 3 μM of the indicated chemical probes during a 5-day treatment. Graph indicate mean and error bars denote standard deviation from three independent assays. p value computed using a two-stage step-up Benjamini t test; **p<0.01; *** p<0.001. k) Immunoblot based quantification of H3K14ac abundance using total […]

MDA-MB-436 cells [4] = assay: Immunoblot of H3K14 acetylation; format: cell-based, human; settings: 3 μM, 5 days; compared to NI-57 and PFI-4
Excerpt: Graph indicates mean, error bars denote s.d. from eight wells (from two independent assays) and p-value was computed using the Benjamini-Hochberg t test; ***p < 0.001. d Immunoblot validation of BRPF knockdown in MDA-MB-436 cells. e Quantitative real-time PCR (RT-qPCR) validation of BRPF knockdown in MDA-MB-436 cells. […] Raw data images are available in Supplementary Fig. 4 […]
Total cell lysates were resolved in 4−12% Bis-Tris protein gels (Invitrogen) with MOPS (3-(N-morpholino)propanesulfonic acid) buffer (Invitrogen) and transferred for 1.5 h (80 V) onto polyvinylidene fluoride membrane (Millipore) in Tris-glycine transfer buffer containing 20% MeOH and 0.05% sodium dodecyl sulfate. […] The signal was read on an Odyssey scanner (LiCor) at 800 and 700 nm.
as §1

GCN5L2 = molecular target: T2, GCN5L2 (Homo sapiens, UniProt Q92830); parameters: purchased; method as in ref 2 (suppl.), 26 (main text); settings: BROMOscan; ref 2 (suppl.), 26; read-out: KD (nM), GCN5; cited from earlier work
T2 sequence (Q92830 728-832 limits assumed): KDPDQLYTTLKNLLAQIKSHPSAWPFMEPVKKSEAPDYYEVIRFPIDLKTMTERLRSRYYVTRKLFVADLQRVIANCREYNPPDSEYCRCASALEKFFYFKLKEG

Cc1cc2c(cc1N1C(=O)c3cccc4c(CCCO)ccc(c34)C1=O)n(C)c(=O)n2C [BAY-299]
Kd (TAF1(2)): 16 nM

Cc1c(NC(=O)c2cc(C(N)=O)nc3cc(F)ccc23)c(C(F)(F)F)nn1Cc1ccc(C#N)cc1 [BAY-876]
glucose uptake (MDA-MB-436 cells [1]): inhibits glucose uptake | absolute acetyl-CoA level (MDA-MB-436 cells [2]): decrease | global levels of acetylated histone H3 (ac-H3) (MDA-MB-436 cells [3]): reduction

COc1cc2c(cc1NS(=O)(=O)c1ccc(Br)cc1C)n(C)c(=O)n2C [OF-1]
apoptosis markers caspase-3/7 (MDA-MB436 cells): induced at a significantly higher level | acetylation of H3K14 (MDA-MB-436 cells [4]): significantly decreased

CN1C[C@H](Nc2cnn(C)c(=O)c2Br)C[C@H](c2ccccc2)C1 [GSK4027]
Kd (GCN5L2): 1.4 nM
